Results as given in PMC9788395, “Cell-Penetrating Peptide–Peptide Nucleic Acid Conjugates as a Tool for Protein Functional Elucidation in the Native Bacterium” (Molecules, 2022).
Non-standard residues stand in square brackets, D forms with d. Residues, ends and D or L forms follow the SMILES beside them. Dab = NCC[C@H](N)C(=O)O

Tested on: Paenibacillus sp. YYML68
Assay type: cell-based
Settings: not told
Description: Figure S5. Evaluation of (DabFF)3K-FAM permeation into Paenibacillus sp. YYML68. (DabFF)3Dab- […]
FAM permeation was performed at 2 µM concentration in PBS at room temperature (23℃) for 1 h.
Untreated […] strain samples were used as a negative control (NC). Green fluorescence images […]
were captured using the blue wide-excitation mirror unit (U-FBWA; Olympus). Cell integrity was […]
confirmed by bright field (BF) images. Images of (DabFF) 3Dab-FAM permeated cells and the negative […]
controls were captured at similar exposure times to allow for comparison. Scale bar is 5 µm.
Enzymes for Biocatalysis: Sources, Biocatalytic Characteristic and Bioprocesses of Marine […]
Enzymes, Trincone, A., Ed. Woodhead Publishing Limited: Cambridge, 2013; pp 4 29-464.
electrospray ionization mass spectrometry for the characterization of kappa - and iota- […]
carrageenans. Application to the hybrid iota -/nu-carrageenans. Analytical chemistry 2005, 77, […]
Cerezo, A. S.; Erra-Balsells, R.; Matulewicz, M. C., Matrix -assisted laser desorption/ionization time-of-flight (MALDI-TOF) mass spectrometry analysis of oligosaccharides and […]
oligosaccharide alditols obtained by hydrolysis of agaroses and carrageenans, two important […]
types of red seaweed polysaccharides. Carbohydrate research 2010, 345, (2), 275-83.
(1 picture or pasted object on this page, not shown here)

Structure (SMILES): NCC[C@H](NC(=O)[C@H](Cc1ccccc1)NC(=O)[C@H](Cc1ccccc1)NC(=O)[C@H](CCN)NC(=O)[C@H](Cc1ccccc1)NC(=O)[C@H](Cc1ccccc1)NC(=O)[C@H](CCN)NC(=O)[C@H](Cc1ccccc1)NC(=O)[C@H](Cc1ccccc1)NC(=O)[C@@H](N)CCN)C(=O)O [(DabFF)3Dab] (H-[Dab]FF[Dab]FF[Dab]FF[Dab]-OH)
- Permeation of the membrane of Paenibacillus sp. strain YYML68: could efficiently and easily permeate the membrane
